# Assay results as given in patent US7214694B2, “3-ox(adi)azolylpropanohydroxamic acids useful as procollagen C-proteinase inhibitors” (Pfizer Inc, priority 2001, dated 2007).
# pIC50: −log10 of the molar value.
# Target: T1, human PCP (Homo sapiens, UniProt P13497)
# T1 construct: made in house; host or cells: CHO cells (stably transfected), purified from the supernatant
# T1 sequence (P13497 121-986): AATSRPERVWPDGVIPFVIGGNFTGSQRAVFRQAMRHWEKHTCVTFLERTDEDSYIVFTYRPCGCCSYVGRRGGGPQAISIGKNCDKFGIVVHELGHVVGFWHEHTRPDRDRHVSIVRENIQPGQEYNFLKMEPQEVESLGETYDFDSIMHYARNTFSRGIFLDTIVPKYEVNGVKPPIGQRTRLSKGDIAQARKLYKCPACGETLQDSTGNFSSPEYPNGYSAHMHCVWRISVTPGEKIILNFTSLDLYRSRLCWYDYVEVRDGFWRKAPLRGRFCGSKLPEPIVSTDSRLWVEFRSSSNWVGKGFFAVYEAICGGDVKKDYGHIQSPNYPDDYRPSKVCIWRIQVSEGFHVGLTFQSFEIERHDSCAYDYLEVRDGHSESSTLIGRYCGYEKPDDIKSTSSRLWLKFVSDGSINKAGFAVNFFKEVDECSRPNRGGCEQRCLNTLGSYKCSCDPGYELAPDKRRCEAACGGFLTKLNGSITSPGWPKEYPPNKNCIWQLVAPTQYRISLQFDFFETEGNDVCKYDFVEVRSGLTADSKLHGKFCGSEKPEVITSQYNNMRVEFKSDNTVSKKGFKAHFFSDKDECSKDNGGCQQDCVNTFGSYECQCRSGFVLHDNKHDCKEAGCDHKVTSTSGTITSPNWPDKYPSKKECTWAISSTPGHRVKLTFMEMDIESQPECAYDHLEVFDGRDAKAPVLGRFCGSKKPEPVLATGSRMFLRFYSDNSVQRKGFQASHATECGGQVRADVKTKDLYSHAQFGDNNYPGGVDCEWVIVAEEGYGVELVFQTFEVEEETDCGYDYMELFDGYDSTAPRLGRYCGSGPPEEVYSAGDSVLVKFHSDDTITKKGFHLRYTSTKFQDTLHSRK
# Test: fluorogenic PCP cleavage assay (PCP inhibition)
# Assay type: biochemical
# Conditions: fluorogenic substrate 3×10^−6 M, pH 7.6, 37° C.
# Protocol: In order to determine potency of PCP inhibitors a fluorogenic PCP cleavage assay was used. This assay is based on the template of Beekman et al. (FEBS Letters (1996), 390: 221–225) using a fluorogenic substrate. The substrate (Dabcyl-Arg-Tyr-Tyr-Arg-Ala-Asp-Asp-Ala-Asn-Val-Glu(EDANS)-NH2) contains the cleavage site of human PCP (Hojima et al., J Biol Chem (1985), 260:15996–16003). […]. The assay was performed in 96-well black fluorimeter plates and fluorescence was read continuously in a fluorimeter over 2.5 hours (λex=340 nm, λem=485 nm) at a constant 37° C. with shaking. Release of the fluorogenic signal was in linear correlation to PCP activity. Reading of the mean velocity from 30 min after start of experiment until 2.5 hours was calculated by the Biolise software. IC50 values were calculated by plotting % inhibition values against compound concentration using Tessela add in for Excel spreadsheet.
row,Structure (SMILES),pIC50
1,"O=C(C[C@@H](CCCC1CCCCC1)c1nc(CNS(=O)(=O)c2ccccn2)no1)NO [Example 6, (3 R)-6-cyclohexyl-N-hydroxy-3-(3-[(2-pyridinylsulfonyl)amino]methyl-1,2,4-oxadiazol-5-yl)hexanamide]",6.97
2,"CC(C)(C)NS(=O)(=O)NCc1noc([C@H](CCCC2CCCCC2)CC(=O)NO)n1 [Example 17, (3 R)-3-[3-({[(tert-butylamino)sulfonyl]amino}methyl)-1,2,4-oxadiazol-5-yl]-6-cyclohexyl-N-hydroxyhexanamide]",7.01
3,"Cc1oc([C@H](CCCC2CCCCC2)CC(=O)NO)nc1CN1CCOCC1 [Example 72, (3R)-6-cyclohexyl-N-hydroxy-3-[5-methyl-4-(4-morpholinylmethyl)-1,3-oxazol-2-yl]hexanamide]",7.43

# System: not given
# Test: not given
# Conditions: not given
row,Structure (SMILES),melting point [°C]
1,"O=C(C[C@@H](CCCC1CCCCC1)c1nc(CNC2CCC2)no1)NO [Example 39, (3R)-3-{3-[(cyclobutylamino)methyl]-1,2,4-oxadiazol-5-yl}-6-cyclohexyl-N-hydroxyhexanamide]",82 to 83.9
2,"O=C(C[C@@H](CCCC1CCCCC1)c1nc(CN2CCC(O)CC2)no1)NO [Example 64, (3R)-6-cyclohexyl-N-hydroxy-3-{3-[(4-hydroxy-1-piperidinyl)methyl]-1,2,4-oxadiazol-5-yl}hexanamide]",85
3,"O=C(C[C@@H](CCCC1CCCCC1)c1nc(CNC2CCOCC2)no1)NO [Example 50, (3R)-6-cyclohexyl-N-hydroxy-3-{3-[(tetrahydro-2H-pyran-4-ylamino)methyl]-1,2,4-oxadiazol-5-yl}hexanamide]",108.9 to 110.3
4,"Cc1oc([C@H](CCCC2CCCCC2)CC(=O)NO)nc1CNC1CCOCC1 [Example 71, (3R)-6-cyclohexyl-N-hydroxy-3-{5-methyl-4-[(tetrahydro-2H-pyran-4-ylamino)methyl]-1,3-oxazol-2-yl}hexanamide]",108 to 110
5,"O=C(C[C@@H](CCCC1CCCCC1)c1nc(CNC2CCCCC2)no1)NO [Example 41, (3R)-6-cyclohexyl-3-{3-[(cyclohexylamino)methyl]-1,2,4-oxadiazol-5-yl}-N-hydroxyhexanamide]",127
6,"O=C(C[C@@H](CCCC1CCCCC1)c1nc(CNC2CCCC2)co1)NO [Example 69, (3R)-6-cyclohexyl-3-{4-[(cyclopentylamino)methyl]-1,3-oxazol-2-yl}-N-hydroxyhexanamide]",124 to 127
7,"O=C(C[C@@H](CCCC1CCCCC1)c1nc(CN2CCOCC2)co1)NO [Example 70, (3R)-6-cyclohexyl-N-hydroxy-3-[4-(4-morpholinylmethyl)-1,3-oxazol-2-yl]hexanamide]",117 to 119
8,"CCC(CC)NCc1noc([C@H](CCCC2CCCCC2)CC(=O)NO)n1 [Example 37, (3R)-6-cyclohexyl-3-(3-{[(1-ethylpropyl)amino]methyl}-1,2,4-oxadiazol-5-yl)-N-hydroxyhexanamide]",102.7 to 104.3
9,"O=C(C[C@@H](CCCC1CCCCC1)c1nc(CN2CCOCC2)no1)NO [Example 65, (3R)-6-cyclohexyl-N-hydroxy-3-[3-(4-morpholinylmethyl)-1,2,4-oxadiazol-5-yl]hexanamide]",138 to 139
10,"COCCCNCc1noc([C@H](CCCC2CCCCC2)CC(=O)NO)n1 [Example 45, (3R)-6-cyclohexyl-N-hydroxy-3-(3-{[(3-methoxypropyl)amino]methyl}-1,2,4-oxadiazol-5-yl)hexanamide]",60
11,"CCNCc1noc([C@H](CCCC2CCCCC2)CC(=O)NO)n1 [Example 32, (3R)-6-cyclohexyl-3-{3-[(ethylamino)methyl]-1,2,4-oxadiazol-5-yl}-N-hydroxyhexanamide]",69.4 to 71.4
12,"CC(C)CNCc1noc([C@H](CCCC2CCCCC2)CC(=O)NO)n1 [Example 35, (3R)-6-cyclohexyl-N-hydroxy-3-{3-[(isobutylamino)methyl]-1,2,4-oxadiazol-5-yl}hexanamide]",97.8 to 99
13,"CCCNCc1noc([C@H](CCCC2CCCCC2)CC(=O)NO)n1 [Example 33, (3R)-6-cyclohexyl-N-hydroxy-3-{3-[(propylamino)methyl]-1,2,4-oxadiazol-5-yl}hexanamide]",90.4 to 91.8

# System: PCP
# Test: not given
# Conditions: 0.2M NaCl; cited from earlier work
row,Structure (SMILES),"activity of PCP, of that observed with the standard assay concentration of 0.15M [%]"
1,[Cl-].[Na+] [NaCl],66

# Same assay, conditions: 0.3M NaCl; cited from earlier work
row,Structure (SMILES),"activity of PCP, of that observed with the standard assay concentration of 0.15M [%]"
1,[Cl-].[Na+] [NaCl],38

# Same assay, conditions: 0.5M NaCl; cited from earlier work
row,Structure (SMILES),"activity of PCP, of that observed with the standard assay concentration of 0.15M [%]"
1,[Cl-].[Na+] [NaCl],25
